Experimental data as given in PubChem BioAssay (NCI).
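Tested at 5 concentrations; 48 h exposure; 96-well plates; endpoints linearly interpolated, else capped at highest concentration. At the TGI there is no net growth.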

What was measured:
Assay in all cases: growth of human tumour cells (NCI), 48 h
DLD-1 colon = test system: DLD-1 colon
DMS 114 small cell lung = test system: DMS 114 small cell lung
KM20L2 colon = test system: KM20L2 colon
M19-MEL melanoma = test system: M19-MEL melanoma
RXF-631 renal = test system: RXF-631 renal
DMS 273 small cell lung = test system: DMS 273 small cell lung
LXFL 529 NSCLC = test system: LXFL 529 NSCLC
SNB-78 CNS = test system: SNB-78 CNS
XF 498 CNS = test system: XF 498 CNS

Structure (SMILES): COC(=O)c1ccccc1NC(=O)C(=O)CC(=O)CC(c1ccccc1)c1c(O)c2ccccc2oc1=O (configuration not stated)
- TGI (DLD-1 colon): > 100 µM
- TGI (DMS 114 small cell lung): > 100 µM
- TGI (KM20L2 colon): > 100 µM
- TGI (M19-MEL melanoma): > 100 µM
- TGI (RXF-631 renal): > 100 µM

Structure (SMILES): CCOC(=O)c1[nH]c(CN(C)Cc2[nH]c(C(=O)OCC)c(C)c2C(=O)OCc2ccccc2)c(C(=O)OCc2ccccc2)c1C
- TGI (DLD-1 colon): > 100 µM
- TGI (DMS 114 small cell lung): > 100 µM
- TGI (DMS 273 small cell lung): 35 µM
- TGI (KM20L2 colon): 14.1 µM
- TGI (LXFL 529 NSCLC): > 100 µM
- TGI (RXF-631 renal): 43.4 µM
- TGI (SNB-78 CNS): > 100 µM

Structure (SMILES): CN(C)CC1(Cc2ccccc2)CCC(Cc2ccccc2)C1=O (configuration not stated)
- TGI (DLD-1 colon): 8.26 µM
- TGI (DMS 114 small cell lung): 36.4 µM
- TGI (DMS 273 small cell lung): 29 µM
- TGI (KM20L2 colon): 32.4 µM
- TGI (LXFL 529 NSCLC): 7.32 µM
- TGI (M19-MEL melanoma): 32 µM
- TGI (SNB-78 CNS): 43.4 µM
- TGI (XF 498 CNS): 36.3 µM

Structure (SMILES): Cn1nc2ccc3nccc(N(CCO)CCO)c3c2n1
- TGI (DLD-1 colon): > 100 µM
- TGI (DMS 273 small cell lung): > 100 µM
- TGI (KM20L2 colon): > 100 µM
- TGI (LXFL 529 NSCLC): > 100 µM
- TGI (M19-MEL melanoma): > 100 µM
- TGI (SNB-78 CNS): > 100 µM
- TGI (XF 498 CNS): > 100 µM

Structure (SMILES): CC(C)(Oc1ccc2c(=O)cc(-c3ccccc3)oc2c1)C(=O)Nc1c(Cl)cccc1Cl
- TGI (DMS 114 small cell lung): > 100 µM
- TGI (DMS 273 small cell lung): > 100 µM
- TGI (KM20L2 colon): > 100 µM
- TGI (LXFL 529 NSCLC): > 100 µM
- TGI (M19-MEL melanoma): > 100 µM
- TGI (SNB-78 CNS): > 100 µM
- TGI (XF 498 CNS): 72.2 µM

Structure (SMILES): COC(=O)CCc1cccnc1/C=N/O
- TGI (DLD-1 colon): > 100 µM
- TGI (DMS 114 small cell lung): > 100 µM
- TGI (DMS 273 small cell lung): > 100 µM
- TGI (KM20L2 colon): > 100 µM
- TGI (LXFL 529 NSCLC): > 100 µM
- TGI (M19-MEL melanoma): > 100 µM
- TGI (RXF-631 renal): > 100 µM
- TGI (SNB-78 CNS): > 100 µM

Structure (SMILES): CCCCCCCCCCCCn1[nH]c(C)c(C(=S)SCCCCCCCC)c1=O
- TGI (DLD-1 colon): > 94.6 µM
- TGI (DMS 114 small cell lung): > 79.4 µM
- TGI (DMS 273 small cell lung): > 100 µM
- TGI (KM20L2 colon): > 100 µM
- TGI (LXFL 529 NSCLC): > 100 µM
- TGI (M19-MEL melanoma): 67.7 µM
- TGI (RXF-631 renal): > 100 µM
- TGI (SNB-78 CNS): > 100 µM
- TGI (XF 498 CNS): > 100 µM

Structure (SMILES): Brc1ccc2c(c1)C1C(CO2)C(c2ccccc2)=NN1c1ccccc1 (configuration not stated)
- TGI (DLD-1 colon): > 100 µM
- TGI (DMS 114 small cell lung): > 100 µM
- TGI (DMS 273 small cell lung): > 100 µM
- TGI (KM20L2 colon): > 100 µM
- TGI (LXFL 529 NSCLC): > 100 µM
- TGI (M19-MEL melanoma): > 100 µM
- TGI (SNB-78 CNS): > 100 µM
- TGI (XF 498 CNS): > 100 µM

Structure (SMILES): CC(=O)NC(CCCNC(=O)NCCCl)C(=O)NCc1ccccc1 (configuration not stated)
- TGI (DMS 114 small cell lung): > 100 µM
- TGI (DMS 273 small cell lung): > 100 µM
- TGI (KM20L2 colon): > 100 µM
- TGI (LXFL 529 NSCLC): > 100 µM
- TGI (M19-MEL melanoma): > 100 µM
- TGI (RXF-631 renal): > 100 µM

Structure (SMILES): C/C(CC(=O)NC1=CC=C(NC(=O)C/C(C)=N\Nc2ccccc2)CC1)=N/Nc1ccccc1
- TGI (DLD-1 colon): > 100 µM
- TGI (DMS 114 small cell lung): > 100 µM
- TGI (DMS 273 small cell lung): > 100 µM
- TGI (KM20L2 colon): > 100 µM
- TGI (LXFL 529 NSCLC): > 100 µM
- TGI (M19-MEL melanoma): > 100 µM
- TGI (RXF-631 renal): > 100 µM
- TGI (SNB-78 CNS): > 100 µM
- TGI (XF 498 CNS): > 100 µM

Structure (SMILES): CCC1(N=[N+]=[N-])C(=O)c2ccccc2N(c2ccccc2)C1=O (configuration not stated)
- TGI (DLD-1 colon): > 100 µM
- TGI (DMS 114 small cell lung): > 100 µM
- TGI (DMS 273 small cell lung): > 100 µM
- TGI (KM20L2 colon): > 100 µM
- TGI (LXFL 529 NSCLC): > 100 µM
- TGI (M19-MEL melanoma): > 100 µM
- TGI (SNB-78 CNS): > 100 µM
- TGI (XF 498 CNS): > 100 µM

Structure (SMILES): CCc1cccc(CC)c1NC(=O)C1=C(C)NC(C)=C(C(=O)Nc2c(CC)cccc2CC)C1c1ccc2c(c1)OCO2
- TGI (DLD-1 colon): 50.3 µM
- TGI (DMS 273 small cell lung): 26 µM
- TGI (KM20L2 colon): 30.5 µM
- TGI (LXFL 529 NSCLC): 29.3 µM
- TGI (M19-MEL melanoma): 30.9 µM
- TGI (SNB-78 CNS): 52.3 µM

Structure (SMILES): CCCCNC(=O)CCN(C(=O)O)S(=O)(=O)c1ccc(NC(=O)c2ccccc2)cc1
- TGI (DLD-1 colon): > 100 µM
- TGI (DMS 114 small cell lung): > 100 µM
- TGI (DMS 273 small cell lung): 86.5 µM
- TGI (KM20L2 colon): > 100 µM
- TGI (LXFL 529 NSCLC): > 100 µM
- TGI (M19-MEL melanoma): > 100 µM
- TGI (SNB-78 CNS): > 100 µM
- TGI (XF 498 CNS): > 100 µM

Structure (SMILES): CCN(CC)Cc1cc(Nc2c3ccccc3nc3c4ccccc4n(C)c23)ccc1O
- TGI (DLD-1 colon): 21 µM
- TGI (DMS 114 small cell lung): 19.5 µM
- TGI (DMS 273 small cell lung): 17.9 µM
- TGI (KM20L2 colon): 17.3 µM
- TGI (LXFL 529 NSCLC): 14.7 µM
- TGI (M19-MEL melanoma): 19 µM
- TGI (RXF-631 renal): 13.8 µM
- TGI (SNB-78 CNS): 41.2 µM
- TGI (XF 498 CNS): 17.1 µM

Structure (SMILES): CSc1nc2c(c(O)c(C)c(=O)n2C2OCC(OC(C)=O)C(OC(C)=O)C2OC(C)=O)c(=O)n1C (configuration not stated)
- TGI (DLD-1 colon): > 100 µM
- TGI (DMS 114 small cell lung): > 100 µM
- TGI (KM20L2 colon): > 100 µM
- TGI (LXFL 529 NSCLC): > 100 µM
- TGI (M19-MEL melanoma): > 100 µM
- TGI (SNB-78 CNS): > 100 µM

Structure (SMILES): COc1ccc(N2C(=O)[C@@H]3[C@H](C2=O)c2[nH]c4ccccc4c2C2CCC(C(C)(C)C)C[C@@H]23)cc1 (some centres not stated)
- TGI (DLD-1 colon): > 100 µM
- TGI (DMS 273 small cell lung): > 77.9 µM
- TGI (KM20L2 colon): > 100 µM
- TGI (LXFL 529 NSCLC): > 100 µM
- TGI (M19-MEL melanoma): > 100 µM
- TGI (SNB-78 CNS): 59.5 µM
- TGI (XF 498 CNS): > 100 µM

Structure (SMILES): COC(=O)NC(=O)c1cn(CCCOC(=O)CCCCCCCCC(=O)OCCCn2cc(C(=O)NC(=O)OC)c(=O)[nH]c2=O)c(=O)[nH]c1=O
- TGI (DLD-1 colon): > 100 µM
- TGI (DMS 114 small cell lung): > 100 µM
- TGI (DMS 273 small cell lung): > 100 µM
- TGI (KM20L2 colon): > 100 µM
- TGI (LXFL 529 NSCLC): > 100 µM
- TGI (M19-MEL melanoma): > 100 µM
- TGI (RXF-631 renal): > 100 µM
- TGI (SNB-78 CNS): > 100 µM
- TGI (XF 498 CNS): 58.8 µM
